# pIC50: −log10 of the molar value. “Also recorded” adds a separate entry of the source. Like-named read-outs stand apart in the source and are kept apart here.
# Assays:
# [1] = target: PDE9 (Homo sapiens, UniProt O76083); test: PDE9 inhibition assay; type: biochemical
# Experimental: Reactions are initiated by addition of the cyclic nucleotide substrate, and reactions are allowed to proceed for one hr at room temperature before being terminated through mixing with 15 uL 8 mg/mL yttrium silicate SPA beads (Amersham).
# Following a 1 hour incubation the reactions were terminated by addition of 15 uL 8 mg/mL yttrium silicate SPA beads (Amersham). […] IC50 values were calculated by nonlinear regression using XLfit (IDBS).
# [2] = system: K562 erythroleukemic cells; test: HbF in cultured K562 cells; type: cell-based; conditions: 3 days
# Experimental: K562 cells were cultured at 37° C. in IMDM® to which the required concentrations of test items or DMSO (negative control) had been added. Plated cells were maintained at 37° C. for 3 days at the end of which the presence of HbF within cells was detected by flow cytometry.
# [3] = target: hERG-mediated potassium currents (Homo sapiens, UniProt Q12809); test: in vitro hERG assay; type: cell-based; conditions: concentrations up through 10^−5 M
# hERG-mediated potassium currents, sequence (Q12809 whole entry): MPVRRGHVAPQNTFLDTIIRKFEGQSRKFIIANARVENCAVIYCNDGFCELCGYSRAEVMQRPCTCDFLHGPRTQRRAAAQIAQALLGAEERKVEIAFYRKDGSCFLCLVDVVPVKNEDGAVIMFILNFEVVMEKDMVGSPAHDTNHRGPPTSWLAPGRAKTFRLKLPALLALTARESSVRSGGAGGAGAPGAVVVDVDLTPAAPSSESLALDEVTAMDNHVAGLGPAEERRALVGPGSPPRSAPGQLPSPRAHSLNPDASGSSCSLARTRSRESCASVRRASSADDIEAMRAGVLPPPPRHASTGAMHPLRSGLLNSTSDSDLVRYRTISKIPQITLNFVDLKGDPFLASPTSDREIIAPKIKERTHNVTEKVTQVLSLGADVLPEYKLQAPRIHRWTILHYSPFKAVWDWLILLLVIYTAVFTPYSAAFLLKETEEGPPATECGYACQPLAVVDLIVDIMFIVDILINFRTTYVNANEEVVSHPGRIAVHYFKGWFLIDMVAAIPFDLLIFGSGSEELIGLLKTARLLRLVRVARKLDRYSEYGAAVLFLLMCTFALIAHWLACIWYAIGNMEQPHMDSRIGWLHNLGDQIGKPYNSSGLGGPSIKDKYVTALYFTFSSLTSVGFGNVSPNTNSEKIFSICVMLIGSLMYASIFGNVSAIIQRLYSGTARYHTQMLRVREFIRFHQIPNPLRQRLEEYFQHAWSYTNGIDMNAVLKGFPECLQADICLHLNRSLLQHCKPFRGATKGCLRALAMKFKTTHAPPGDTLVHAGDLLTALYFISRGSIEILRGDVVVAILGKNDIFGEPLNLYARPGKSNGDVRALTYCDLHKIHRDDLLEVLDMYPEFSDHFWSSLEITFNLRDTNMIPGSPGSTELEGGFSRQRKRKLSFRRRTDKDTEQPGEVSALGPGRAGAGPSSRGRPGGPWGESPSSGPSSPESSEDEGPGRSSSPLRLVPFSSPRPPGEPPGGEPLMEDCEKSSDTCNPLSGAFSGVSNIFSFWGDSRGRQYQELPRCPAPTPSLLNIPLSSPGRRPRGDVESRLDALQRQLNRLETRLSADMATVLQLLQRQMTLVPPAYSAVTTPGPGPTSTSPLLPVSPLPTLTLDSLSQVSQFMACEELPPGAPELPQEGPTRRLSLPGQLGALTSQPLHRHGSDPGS
# Excerpt: (§1) The safety pharmacology assessment of Compound P3.1 included an in vitro hERG assay, neurofunctional and respiratory studies in rats, and a cardiovascular study in beagle dogs.
# [4] = system: Han Wistar Rats; test: Neurofunctional study in Han Wistar rats; type: in vivo, rat
# Experimental: as §1
# Single oral doses of 250, 500, and 1000 mg/kg Compound P3.1 in Han Wistar Rats had no effect on clinical observations, home cage observations, handheld observations, or body temperatures.
# [5] = in vivo; type: in vivo; conditions: rat, in vivo, 1000 mg/kg; read-out: plasma exposure (AUC0-24)
# Excerpt: as §1
# (§2) The death was considered test article related. […]
# [6] = system: rat; test: in vivo; type: in vivo
# Excerpt: as §1, §2
# [7] = Plasma protein binding, mouse; type: in vitro ADME; conditions: read-out: mean plasma fraction bound (converted)
# [8] = Plasma protein binding, dog; type: in vitro ADME; conditions: read-out: mean plasma fraction bound (converted)
# [9] = Plasma protein binding, humans; type: in vitro ADME; conditions: human, read-out: mean plasma fraction bound (converted)
# [10] = Metabolic stability (intrinsic clearance) in liver microsomes; type: in vitro ADME, mouse, rat, dog, monkey, and human
# [11] = target: T1, MDR1 (P-gp) (Homo sapiens, UniProt P08183); test: Bi-directional permeability across MDCK-MDR1 cell monolayer; type: in vitro ADME; conditions: human
# T1 construct: expressed in transfected cells; host or cells: MDCK-MDR1 cells
# T1 sequence (P08183 whole entry): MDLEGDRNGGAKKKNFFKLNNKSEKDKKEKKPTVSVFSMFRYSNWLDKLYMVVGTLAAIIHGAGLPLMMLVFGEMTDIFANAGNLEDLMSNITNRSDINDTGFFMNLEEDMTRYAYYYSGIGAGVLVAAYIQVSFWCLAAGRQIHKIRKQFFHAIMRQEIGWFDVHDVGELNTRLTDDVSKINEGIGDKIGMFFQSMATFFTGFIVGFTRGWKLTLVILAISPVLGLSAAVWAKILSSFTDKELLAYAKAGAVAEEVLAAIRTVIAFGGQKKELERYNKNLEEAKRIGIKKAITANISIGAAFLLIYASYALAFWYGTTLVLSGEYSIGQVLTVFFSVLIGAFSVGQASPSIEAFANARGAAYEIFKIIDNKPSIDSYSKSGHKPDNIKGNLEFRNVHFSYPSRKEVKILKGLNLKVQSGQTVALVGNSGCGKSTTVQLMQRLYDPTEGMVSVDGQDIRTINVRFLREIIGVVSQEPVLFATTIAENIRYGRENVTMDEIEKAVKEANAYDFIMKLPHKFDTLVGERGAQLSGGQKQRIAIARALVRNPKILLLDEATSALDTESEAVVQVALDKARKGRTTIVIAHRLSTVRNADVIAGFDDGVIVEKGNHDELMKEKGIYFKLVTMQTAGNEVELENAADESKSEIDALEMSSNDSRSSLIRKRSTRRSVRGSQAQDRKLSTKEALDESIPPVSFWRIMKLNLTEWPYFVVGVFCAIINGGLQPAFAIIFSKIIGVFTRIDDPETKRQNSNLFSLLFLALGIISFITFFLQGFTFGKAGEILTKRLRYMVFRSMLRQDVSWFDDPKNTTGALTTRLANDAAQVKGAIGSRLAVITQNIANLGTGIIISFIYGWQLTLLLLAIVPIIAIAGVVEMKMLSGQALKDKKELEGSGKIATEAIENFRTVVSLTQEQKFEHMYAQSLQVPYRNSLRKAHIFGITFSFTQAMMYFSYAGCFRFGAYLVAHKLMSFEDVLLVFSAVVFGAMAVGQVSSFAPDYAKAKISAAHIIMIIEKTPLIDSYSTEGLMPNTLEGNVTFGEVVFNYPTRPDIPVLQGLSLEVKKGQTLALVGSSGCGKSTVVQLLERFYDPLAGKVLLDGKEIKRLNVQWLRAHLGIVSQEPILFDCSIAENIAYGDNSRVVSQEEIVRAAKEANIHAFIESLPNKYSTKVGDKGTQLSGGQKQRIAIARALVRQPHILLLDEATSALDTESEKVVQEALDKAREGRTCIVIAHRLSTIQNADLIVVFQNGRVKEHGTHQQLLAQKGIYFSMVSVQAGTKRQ
# [12] = target: T2, MDR1 (human P-gp) efflux transporter (Homo sapiens, UniProt P08183); test: as above; type: in vitro ADME
# T2 construct: expressed in transfected cells; host or cells: MDCK-MDR1 cells
# T2 sequence (P08183 whole entry): as above
# [13] = in vivo; conditions: rat, 250 mg/kg/day
# Experimental: Animals were observed daily from the start of the dosing and body weights and food intake were recorded at regular intervals. Blood samples were collected from a subset of animals in each group at 6 time points on Day 7 for TK evaluation.
# [14] = Bacterial reverse mutation assay; type: cell-based
# Excerpt: (§3) The genotoxicity evaluation of Compound P3.1 consisted of a bacterial reverse mutation assay, a chromosome aberration study, and a in vivo rat micronucleus study. Compound P3.1 was negative in all 3 assays.
# [15] = Chromosome aberration study; type: cell-based
# Excerpt: as §3
# [16] = system: rat; test: In vivo rat micronucleus study
# Excerpt: as §3
# [17] = Stability study of drug substance (ambient and 40-45 °C); type: physicochemical; conditions: ambient temperature and 40° C.−45° C., 3-month period
# Experimental: A stability study has been completed on Compound P3.1. Samples of Compound P3.1 were aliquoted into double-walled polyethylene pouches, which were tied off and then heat-sealed in an aluminum pouch. Samples were stored at ambient temperature and at 40° C.−45° C. (no humidity control) with testing performed over a 3-month period.
# [18] = system: TNF-α activated human endothelial cells; test: Micro-channel PMN adhesion assay under flow (FIG. 9); type: cell-based
# Excerpt: In this study, the effects of Compound P3.1 on PMN adhesion to TNF-α activated human endothelial cell monolayers under flow conditions are investigated. It has been validated in vitro dynamic assay mimics neutrophil recruitment to endothelial cell monolayers under inflammatory conditions (TNF-α activation). In this assay, both control and sickle PMNs adhere to endothelial cells but to different degrees, reflecting in vivo conditions. The human dermal microvascular endothelial cell line HMEC-1 is used in this approach. The potential inhibitory effect of Compound P3.1 is tested in parallel and compared with the effect of HU and other PDE9 inhibitors.
# In a first step, the effects of 1 uM Compound P3.1 and 10 uM HU were tested by incubating blood samples from healthy volunteers (n=3-6) (i.e., donors or donor cells) with these molecules.
# Adhesion of PMNs from healthy volunteers was assessed under flow conditions, mimicking blood flow, in micro channels (Venaflux, Cellix, Ireland) coated with endothelial cell monolayers cultivated under inflammatory conditions. The adhesion assay was performed with whole fresh blood, previously incubated or not with Compound P3.1, to be closer to the physiological condition of circulation in a person, and to study the interaction between the different blood cells with PMNs.
# [19] = system: CD34+ derived red blood cells from SCD subjects; conditions: 10 μM Compound P3.1, 5 days
# [20] = system: 7 key CYP enzyme isoforms; test: CYP enzyme inhibition in human liver microsomes; conditions: up through 100 μM
# PDE9, sequence (O76083 whole entry): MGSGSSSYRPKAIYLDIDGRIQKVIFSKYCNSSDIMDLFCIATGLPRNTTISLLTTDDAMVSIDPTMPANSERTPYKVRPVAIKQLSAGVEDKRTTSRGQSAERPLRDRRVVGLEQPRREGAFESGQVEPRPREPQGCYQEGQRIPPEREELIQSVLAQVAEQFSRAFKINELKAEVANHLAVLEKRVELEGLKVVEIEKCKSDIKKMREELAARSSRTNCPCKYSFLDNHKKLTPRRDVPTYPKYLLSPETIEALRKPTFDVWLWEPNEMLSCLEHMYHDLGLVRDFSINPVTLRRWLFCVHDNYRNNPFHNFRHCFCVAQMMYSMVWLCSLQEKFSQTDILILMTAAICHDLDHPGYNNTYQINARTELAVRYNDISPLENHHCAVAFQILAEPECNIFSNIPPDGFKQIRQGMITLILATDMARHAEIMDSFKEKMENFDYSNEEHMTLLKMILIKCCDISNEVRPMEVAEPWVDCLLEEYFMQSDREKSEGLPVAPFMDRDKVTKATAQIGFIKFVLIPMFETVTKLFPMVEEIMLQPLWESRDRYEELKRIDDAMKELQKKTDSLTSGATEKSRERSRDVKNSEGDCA
structure (smiles),measurement,setting,value
"C[C@@H]1CN(Cc2ncccn2)C[C@H]1c1cn2c(C3CCOCC3)ncc2c(=O)[nH]1 (single isomer, unassigned) [Compound P3.1]",pIC50,[1],7.31
same,HbF positive cells,[2]; 1 μM,68.7%
same,HbF positive cells,[2]; 3 μM,75.6%
same,HbF positive cells,[2]; 10 μM,85.6%
same,inhibitory effect on hERG-mediated potassium currents,[3],did not have an inhibitory effect; also recorded: no inhibitory effect
same,adverse finding,"[4]; >500 mg/kg, 0.5 and 24 hours post dosing",increased incidence of no visible-approach response
same,non-adverse findings at 250 mg/kg,[4]; single oral 250 mg/kg,transient decrease in sensory response (approach response)
same,non-adverse findings at 500 and 1000 mg/kg,[4]; single oral 500 and 1000 mg/kg,"decreases in body weight/weight gain, motor activity (number of rears), and sensory response (tail pinch response)"
same,"clinical, home cage, handheld observations, body temperatures","[4]; single oral doses of 250, 500, and 1000 mg/kg",no effect
same,AUC(0-t),[5],> 500 µg·h/mL
same,mortality,"[6]; 1000 mg/kg, approximately 4.8 hours after dosing",One male rat was found dead
same,exposure relative to anticipated efficacious dose,"[6]; rat, in vivo",approximately 48 fold
same,respiratory functions,"[6]; rat, in vivo, po, 1000 mg/kg",transient increases in respiratory rate and tidal volume
same,fraction unbound,[7],0.767
same,fraction unbound,[8],0.771
same,fraction unbound,[9],0.686
same,metabolic stability,"[10]; mouse, rat, dog, monkey, and human liver microsomes",highly stable
same,intrinsic clearance in liver microsomes,[10]; presence or absence of NADPH,minimal intrinsic clearance
same,efflux ratio,[11],180
same,MDR1 efflux transporter substrate,[12],strong MDR1 (human P-gp) efflux transporter substrate
same,AUC0-24,"[13]; male, Crl:WI(Han), po",198 µg·h/mL
same,Cmax,"[13]; male, Crl:WI(Han), po",18800 ng/mL
same,AUC(0-t),"[13]; male, Crl:WI(Han), po, AUC0-24",226 µg·h/mL
same,Cmax,"[13]; male, Crl:WI(Han), po, Cmax",16500 ng/mL
same,Cmax and systemic exposure of Compound P3.1 in isolation vs in combination with HU,[13],similar
same,"genotoxicity, bacterial reverse mutation assay",[14],negative
same,"genotoxicity, chromosome aberration study",[15],negative
same,"genotoxicity, in vivo rat micronucleus study",[16],negative
same,stability: appearance and purity of drug substance,[17],no changes to appearance or purity
same,adhesion of low-binding donor cells,"[18]; 1 uM Compound P3.1, whole blood of healthy volunteers",no effect
same,adhesion of high-binding donor cells,"[18]; 1 uM Compound P3.1 or 10 uM HU, whole blood of healthy volunteers",reduced the adhesion of 3 of 4 high-binding donors
same,amount of HbF within cells (mean MFI),[19],"10,840"
same,mean MFI of HbF relative to controls,[19],145%
same,percentage of HbF positive CD36+ cells (mean),[19]; 5 SCD subjects,24.6%
same,direct inhibition of 7 key CYP enzyme isoforms,[20],no potential for direct inhibition

# Source: patent US20190307754A1, “PDE9 INHIBITORS FOR TREATMENT OF PERIPHERAL DISEASES” (IMARA, INC., priority 2016, published 2019)
